Our source for the EC50 values is US20080207573A1, “COMPOUNDS FOR TREATING VIRAL INFECTIONS” (priority 2006, published 2008).

The structures appear in SMILES notation.

One experiment concerns HIV-1 laboratory strain, NL4-3. The experiment is described as follows: MT-4 Cytoprotection Assay (protection from HIV-induced cytopathic effect, WST-1 readout). It counts as cell-based. The following applies: Human immunodeficiency virus 1, NL43, MT4; Table 7; MT-4 cells, HIV-1 NL4-3; read-out: MT4 EC50. Here is the method:
MT-4 Cytoprotection Assay
The HTLV-1 transformed T cell line, MT-4, is highly susceptible to HIV-1 infection. Anti-HIV-1 agents were evaluated in this target cell line by protection from the HIV-induced cytopathic effect. In this assay, viability of both HIV-1 and mock-infected cells was assessed in a […] assay that monitors the ability of metabolically-active cells to reduce the tetrazolium salt WST-1. Cytoprotection by antiviral compounds is indicated by the positive readout of increased WST-1 cleavage.
Briefly, exponentially growing MT-4 cells were mock-infected or batch-infected with the HIV-1 laboratory strain, NL4-3, at a multiplicity of infection of 0.0005. Following a two hour infection, the cells were washed to remove unbound virus and plated in the presence of increasing concentrations of compound. After four days incubation, cytoprotection in the infected cells and compound toxicity in mock-infected cells were analyzed using the WST-1 assay.
On the technique in general: Cytopathic effects are the visible damage that an infection or toxin causes in cultured cells.
What is called EC50 is the concentration giving half of the maximal effect. As for `C=C(C)[C@@H]1CC[C@]2(C(=O)NCc3ccc(C(=O)O)s3)CC[C@]3(C)C(CCC4[C@@]5(C)CCC(OC(=O)CC(C)(C)C(=O)O)C(C)(C)C5CC[C@]43C)C12` (some centres unmarked) [Compound 129], the EC50 amounted to 371 nM.
On the same count and under the same terms, next, `C=C(C)[C@@H]1CC[C@]2(C(=O)Nc3cccc4cccnc34)CC[C@]3(C)C(CCC4[C@@]5(C)CCC(OC(=O)CC(C)(C)C(=O)O)C(C)(C)C5CC[C@]43C)C12` (some centres unmarked) [Compound 127]: 3100 nM.

Staying with this experiment, now noted: Human immunodeficiency virus 1, NL43; list of representative compounds; read-out: EC50 of less than about 100 nm (representative compounds).
Take `C=C(C)[C@@H]1CC[C@]2(C(=O)Nc3ccc(OC)cc3)CC[C@]3(C)[C@H](CC[C@@H]4[C@@]5(C)CC[C@H](OC(=O)CC(C)(C)C(=O)O)C(C)(C)[C@@H]5CC[C@]43C)[C@@H]12` [Compound 77]: the EC50 is less than 100 nM.
The same measure, in the same setting: as for `C=C(C)[C@@H]1CC[C@]2(C(=O)NCc3nc4ccccc4s3)CC[C@]3(C)[C@H](CC[C@@H]4[C@@]5(C)CC[C@H](OC(=O)CC(C)(C)C(=O)O)C(C)(C)[C@@H]5CC[C@]43C)[C@@H]12` [Compound 106], the figure is less than 100 nM.
The same measure, in the same setting: next, `C=C(C)[C@@H]1CC[C@]2(C(=O)NCCc3ccccn3)CC[C@]3(C)[C@H](CC[C@@H]4[C@@]5(C)CC[C@H](OC(=O)CC(C)(C)C(=O)O)C(C)(C)[C@@H]5CC[C@]43C)[C@@H]12` [Compound 92]: less than 100 nM; `C=C(C)[C@@H]1CC[C@]2(C(=O)NC(C(=O)O)c3ccc(OC)cc3)CC[C@]3(C)[C@H](CC[C@@H]4[C@@]5(C)CC[C@H](OC(=O)CC(C)(C)C(=O)O)C(C)(C)[C@@H]5CC[C@]43C)[C@@H]12` (some centres unmarked) [Compound 120]: less than 100 nM; `C=C(C)[C@@H]1CC[C@]2(C(=O)NCc3nc4ccccc4n3C)CC[C@]3(C)[C@H](CC[C@@H]4[C@@]5(C)CC[C@H](OC(=O)CC(C)(C)C(=O)O)C(C)(C)[C@@H]5CC[C@]43C)[C@@H]12` [Compound 109]: less than 100 nM.
In the case of `C=C(C)[C@@H]1CC[C@]2(C(=O)NCc3ccc(Cl)cc3)CC[C@]3(C)[C@H](CC[C@@H]4[C@@]5(C)CC[C@H](OC(=O)CC(C)(C)C(=O)O)C(C)(C)[C@@H]5CC[C@]43C)[C@@H]12` [Compound 80], the EC50 is less than 100 nM.
Still for that read-out and setting: as for `C=C(C)[C@@H]1CC[C@]2(C(=O)NCc3ccc4occc4c3)CC[C@]3(C)[C@H](CC[C@@H]4[C@@]5(C)CC[C@H](OC(=O)CC(C)(C)C(=O)O)C(C)(C)[C@@H]5CC[C@]43C)[C@@H]12` [Compound 87], the figure is less than 100 nM; as for `C=C(C)[C@@H]1CC[C@]2(C(=O)NCc3ccc(OC)cc3)CC[C@]3(C)[C@H](CC[C@@H]4[C@@]5(C)CC[C@H](OC(=O)CC(C)(C)C(=O)O)C(C)(C)[C@@H]5CC[C@]43C)[C@@H]12` [Compound 69], less than 100 nM.
Turning to `C=C(C)[C@@H]1CC[C@]2(C(=O)NCc3cc(OC)c(OC)c(OC)c3)CC[C@]3(C)[C@H](CC[C@@H]4[C@@]5(C)CC[C@H](OC(=O)CC(C)(C)C(=O)O)C(C)(C)[C@@H]5CC[C@]43C)[C@@H]12` [Compound 103], the EC50 is less than 100 nM.
Still for that read-out and setting: next, `C=C(C)[C@@H]1CC[C@]2(C(=O)NCCC3CCCCC3)CC[C@]3(C)[C@H](CC[C@@H]4[C@@]5(C)CC[C@H](OC(=O)CC(C)(C)C(=O)O)C(C)(C)[C@@H]5CC[C@]43C)[C@@H]12` [Compound 124]: less than 100 nM.
On the same count and under the same terms, as for `CC(C)[C@@H]1CC[C@]2(C(=O)NCc3ccccc3C(=O)O)CC[C@]3(C)[C@H](CC[C@@H]4[C@@]5(C)CC[C@H](OC(=O)CC(C)(C)C(=O)O)C(C)(C)[C@@H]5CC[C@]43C)[C@@H]12` [Compound 122], the figure is less than 100 nM; as for `C=C(C)[C@@H]1CC[C@]2(C(=O)NCc3ccoc3)CC[C@]3(C)[C@H](CC[C@@H]4[C@@]5(C)CC[C@H](OC(=O)CC(C)(C)C(=O)O)C(C)(C)[C@@H]5CC[C@]43C)[C@@H]12` [Compound 95], less than 100 nM; as for `C=C(C)[C@@H]1CC[C@]2(C(=O)NCc3nc4ccccc4[nH]3)CC[C@]3(C)[C@H](CC[C@@H]4[C@@]5(C)CC[C@H](OC(=O)CC(C)(C)C(=O)O)C(C)(C)[C@@H]5CC[C@]43C)[C@@H]12` [Compound 110], less than 100 nM.
Same read-out and setting: as for `C=C(C)[C@@H]1CC[C@]2(C(=O)NCc3ccc4c(c3)OCCO4)CC[C@]3(C)[C@H](CC[C@@H]4[C@@]5(C)CC[C@H](OC(=O)CC(C)(C)C(=O)O)C(C)(C)[C@@H]5CC[C@]43C)[C@@H]12` [Compound 84], the figure is less than 100 nM.
On to `C=C(C)[C@@H]1CC[C@]2(C(=O)NCCc3ccncc3)CC[C@]3(C)[C@H](CC[C@@H]4[C@@]5(C)CC[C@H](OC(=O)CC(C)(C)C(=O)O)C(C)(C)[C@@H]5CC[C@]43C)[C@@H]12` [Compound 91], for which the EC50 was less than 100 nM.
In the case of `C=C(C)[C@@H]1CC[C@]2(C(=O)NCCc3cccc(OC)c3)CC[C@]3(C)[C@H](CC[C@@H]4[C@@]5(C)CC[C@H](OC(=O)CC(C)(C)C(=O)O)C(C)(C)[C@@H]5CC[C@]43C)[C@@H]12` [Compound 88], the concentration giving a half-maximal response (EC50) is less than 100 nM.
Same read-out and setting: as for `C=C(C)[C@@H]1CC[C@]2(C(=O)NC(C)c3ccccn3)CC[C@]3(C)[C@H](CC[C@@H]4[C@@]5(C)CC[C@H](OC(=O)CC(C)(C)C(=O)O)C(C)(C)[C@@H]5CC[C@]43C)[C@@H]12` (some centres unmarked) [Compound 105], the figure is less than 100 nM.
On the same count and under the same terms, next, `C=C(C)[C@@H]1CC[C@]2(C(=O)NCc3ncccc3C)CC[C@]3(C)[C@H](CC[C@@H]4[C@@]5(C)CC[C@H](OC(=O)CC(C)(C)C(=O)O)C(C)(C)[C@@H]5CC[C@]43C)[C@@H]12` [Compound 113]: less than 100 nM; `C=C(C)[C@@H]1CC[C@]2(C(=O)NCCc3cccnc3)CC[C@]3(C)[C@H](CC[C@@H]4[C@@]5(C)CC[C@H](OC(=O)CC(C)(C)C(=O)O)C(C)(C)[C@@H]5CC[C@]43C)[C@@H]12` [Compound 93]: less than 100 nM.
Same read-out and setting: as for `C=C(C)[C@@H]1CC[C@]2(C(=O)N[C@H](C)c3ccc(OC)cc3)CC[C@]3(C)[C@H](CC[C@@H]4[C@@]5(C)CC[C@H](OC(=O)CC(C)(C)C(=O)O)C(C)(C)[C@@H]5CC[C@]43C)[C@@H]12` [Compound 81], the figure is less than 100 nM.
`C=C(C)[C@@H]1CC[C@]2(C(=O)N[C@@H](C)c3ccc(OC)cc3)CC[C@]3(C)[C@H](CC[C@@H]4[C@@]5(C)CC[C@H](OC(=O)CC(C)(C)C(=O)O)C(C)(C)[C@@H]5CC[C@]43C)[C@@H]12` [Compound 117]: the EC50 is less than 100 nM.
The same measure, in the same setting: as for `C=C(C)[C@@H]1CC[C@]2(C(=O)NCc3ccc(N(C)C)cc3)CC[C@]3(C)[C@H](CC[C@@H]4[C@@]5(C)CC[C@H](OC(=O)CC(C)(C)C(=O)O)C(C)(C)[C@@H]5CC[C@]43C)[C@@H]12` [Compound 99], the figure is less than 100 nM; as for `C=C(C)[C@@H]1CC[C@]2(C(=O)NCc3ccc4ccccc4n3)CC[C@]3(C)[C@H](CC[C@@H]4[C@@]5(C)CC[C@H](OC(=O)CC(C)(C)C(=O)O)C(C)(C)[C@@H]5CC[C@]43C)[C@@H]12` [Compound 111], less than 100 nM; as for `C=C(C)[C@@H]1CC[C@]2(C(=O)NCCCc3ccc(OC)cc3)CC[C@]3(C)[C@H](CC[C@@H]4[C@@]5(C)CC[C@H](OC(=O)CC(C)(C)C(=O)O)C(C)(C)[C@@H]5CC[C@]43C)[C@@H]12` [Compound 104], less than 100 nM.
